Measured values published in ChEMBL document CHEMBL1139585, “A 3D-QSAR model for CYP2D6 inhibition in the aryloxypropanolamine series” (Bioorg Med Chem Lett, 2005).

Target: Cytochrome P450 2D6 (Homo sapiens, UniProt P10635)
Assay: Inhibitory activity against recombinant human Cytochrome P450 2D6 (CYP2D6) after incubated for 45 minutes

Sequence of Cytochrome P450 2D6 (P10635 whole entry): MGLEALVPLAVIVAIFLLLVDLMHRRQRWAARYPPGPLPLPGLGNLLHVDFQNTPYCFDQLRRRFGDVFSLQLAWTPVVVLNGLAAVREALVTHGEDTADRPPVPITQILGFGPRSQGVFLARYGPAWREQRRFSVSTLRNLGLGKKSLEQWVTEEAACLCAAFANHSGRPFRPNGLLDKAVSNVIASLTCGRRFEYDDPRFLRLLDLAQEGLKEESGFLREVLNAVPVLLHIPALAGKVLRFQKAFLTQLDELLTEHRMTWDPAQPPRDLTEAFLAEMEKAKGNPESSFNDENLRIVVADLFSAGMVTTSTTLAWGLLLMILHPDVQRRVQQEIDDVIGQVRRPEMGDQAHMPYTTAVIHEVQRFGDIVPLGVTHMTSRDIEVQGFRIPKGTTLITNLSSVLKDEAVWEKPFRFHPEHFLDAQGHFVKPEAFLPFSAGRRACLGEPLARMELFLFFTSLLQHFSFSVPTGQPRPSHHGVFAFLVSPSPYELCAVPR

Q: Which IC50 does the source give for `CC(C)(Cc1c[nH]c2ccccc12)NCC(O)COc1c(C#N)ccc2ccccc12` (stereo unspecified) here?
A: 0.05 µM

Q: For `CC(C)N[C@@H](C)C(O)COc1cccc2ccccc12` (stereo partly specified), which IC50 is on record?
A: 3.8 µM

Q: With `COCCc1ccc(OCC(O)CNC(C)(C)CSc2ccccc2C)cc1` (stereo unspecified) as the compound, how does the IC50 read?
A: 0.28 µM

Q: With `CC(C)NC[C@@H](O)COc1ccc(-c2ccccc2)c2ccccc12` as the compound, how does the IC50 read?
A: 21 µM

Q: How did the IC50 turn out when `COc1ccc2c(CC(C)(C)NCC(O)COc3ccccc3C#N)c[nH]c2c1` (stereo unspecified) was run?
A: 0.42 µM

Q: `C=CCOc1ccc(OCC(O)CNC(C)C)cc1` (stereo unspecified) was tested. Which IC50 did it give?
A: 21 µM

Q: `CC(C)(C)NCC(O)COc1ccccc1` (stereo unspecified) was tested. Which IC50 did it give?
A: 28 µM

Q: `CCc1ccccc1OCC(O)CNC(C)(C)Cc1cc2ccccc2[nH]1` (stereo unspecified) was tested. Which IC50 did it give?
A: 0.12 µM

Q: `CCc1cccc2cc(CC(O)CNC(C)(C)C)oc12` (stereo unspecified) was tested. Which IC50 did it give?
A: 4.8 µM

Q: `COc1ccc2[nH]cc(CC(C)(C)NCC(O)COc3ccccc3C#N)c2c1` (stereo unspecified) was tested. Which IC50 did it give?
A: 0.05 µM

Q: With `COc1ccc2c(OCC(O)CNC(C)C)cccc2c1` (stereo unspecified) as the compound, how does the IC50 read?
A: 8.4 µM

Q: `Cc1ccccc1OCC(O)CNC(C)(C)Cc1cc2ccccc2n1C` (stereo unspecified) was tested. Which IC50 did it give?
A: 0.09 µM

Q: For `CC(C)(Cc1csc2ccccc12)NCC(O)COc1ccccc1C#N` (stereo unspecified), which IC50 is on record?
A: 0.05 µM

Q: Which IC50 does the source give for `CC(C)(Cc1c[nH]c2ccc(O)cc12)NCC(O)COc1ccccc1C#N` (stereo unspecified) here?
A: 0.08 µM

Q: For `CC(C)NCC(O)COc1ccccc1` (stereo unspecified), which IC50 is on record?
A: 18 µM

Q: Which IC50 does the source give for `CC(C)NCC(O)COc1ccc(CCOCC2CC2)cc1` (stereo unspecified) [BETAXOLOL] here?
A: 66 µM
